Measured values taken from patent US20220251081A1, “HETEROBICYCLIC INHIBITORS OF MAT2A AND METHODS OF USE FOR TREATING CANCER” (priority 2019, published 2022).

Legend:
MAT2A homodimer = target: T1, MAT2A homodimer (Homo sapiens, UniProt P31153); assay: Biochemical assay: inhibition of recombinant MAT2A homodimer (phosphate release, PiColorLock Gold); settings: MAT2A IC50 score; read-out: Enzyme Inhibition
T1 construct: inferred from Ni sepharose purification and imidazole elution; made in house; host or cells: Sf9 insect cells, recombinant baculovirus (Bac to Bac, pFASTBAC1 vector)
Summary of the method: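 Baculovirus/Sf9-expressed, Ni-purified MAT2A at 4 μg/mL in pH 8.0 Tris/KCl/MgCl2/EDTA/BSA buffer, preincubated with compound 60 min at 25 °C. Started with ATP and L-methionine substrate mix (500 μM and 40 μM, stock in mix), 60 min at 25 °C; released phosphate by PiColorLock Gold against a phosphate standard curve.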

[1] = tested on: SAM in HCT116 human colon carcinoma cell line with deleted MTAP gene; assay: Cellular assay of target engagement (SAM): SAM level by LC-MS/MS after 72 hrs; format: cell-based; settings: HCT-116, IC50 score, read-out: Cell 72 h SAM Inhibition (MTAP −/−)
Summary of the method: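 MTAP-deleted HCT116 cells were seeded, then exposed 24 h later to a 10-point 3-fold compound dilution series for 72 h at 37 °C/5% CO2. They were lysed in cold 80% methanol/acetic acid containing d3-SAM internal standard. SAM was quantified by LC-MS/MS (MRM, m/z 399.2→250.1).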

HCT116 MTAP-/- = assay: Inhibition of cellular proliferation, 4 days, Cell Titer Glo, HCT116 MTAP-/-; format: cell-based; settings: Homo sapiens, HCT-116, 96 h, IC50 score, read-out: 4 Day Relative Growth Inhibition (MTAP −/−)
Summary of the method: (§1)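 Isogenic human colon carcinoma lines differing only in MTAP status, plated 24 h before dosing, then exposed for 4 days at 37 °C/5% CO2 to a 10-point 3-fold dilution series (0.2% DMSO final). Read-out is Cell Titer Glo ATP luminescence, blank-subtracted and normalised to in-plate DMSO control, plotted as % proliferation change versus log molar concentration.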

HCT116 MTAP +/+ = assay: Inhibition of cellular proliferation, 4 days, Cell Titer Glo, HCT116 MTAP+/+; format: cell-based; settings: Homo sapiens, HCT-116, 96 h, IC50 score, read-out: 4 Day Relative Growth Inhibition (MTAP +/+)
Summary of the method: as §1

T1 sequence (P31153 whole entry): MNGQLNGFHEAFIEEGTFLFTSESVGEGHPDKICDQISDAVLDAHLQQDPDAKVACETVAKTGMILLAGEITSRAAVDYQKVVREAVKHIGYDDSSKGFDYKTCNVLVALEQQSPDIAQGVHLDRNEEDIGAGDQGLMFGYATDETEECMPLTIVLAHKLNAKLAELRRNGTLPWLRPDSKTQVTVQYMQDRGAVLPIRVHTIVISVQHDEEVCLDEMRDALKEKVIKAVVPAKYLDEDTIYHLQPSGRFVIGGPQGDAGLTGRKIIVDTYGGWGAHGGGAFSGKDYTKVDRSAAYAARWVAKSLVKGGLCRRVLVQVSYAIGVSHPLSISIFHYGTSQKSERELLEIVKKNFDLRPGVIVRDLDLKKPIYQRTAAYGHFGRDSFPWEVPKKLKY

Q: Which IC50 (MAT2A homodimer) does the source give for `[2H]C([2H])([2H])Oc1ccc(-n2c(=O)c(-c3ccc4nn(C)cc4c3)nc3ccc(OCC(F)F)nc32)cc1` [Example 325] here?
A: < 100 nM

Q: And the IC50 [1]?
A: < 100 nM

Q: What about the IC50 (HCT116 MTAP-/-) of the same compound?
A: < 100 nM

Q: And the IC50 (HCT116 MTAP +/+)?
A: ≥ 1000 nM

Q: What does the source list for `[2H]C([2H])([2H])Oc1ccc(-n2c(=O)c(-c3ccc4nn(C)cc4c3)nc3ccc(OCC(F)(F)F)nc32)cc1` [Example 326]?
A: IC50 (MAT2A homodimer): < 100 nM; IC50 [1]: < 100 nM; IC50 (HCT116 MTAP-/-): < 100 nM; IC50 (HCT116 MTAP +/+): ≥ 1000 nM

Q: How did the IC50 (MAT2A homodimer) turn out when `COc1ccc(-n2c(=O)c(-c3ccc4nn(C)cc4c3)nc3ccc(OCC(F)(F)F)nc32)cc1` [Example 327] was run?
A: < 100 nM

Q: What about the IC50 [1] of the same compound?
A: < 100 nM

Q: And the IC50 (HCT116 MTAP-/-)?
A: < 100 nM

Q: What about the IC50 (HCT116 MTAP +/+) of the same compound?
A: ≥ 1000 nM

Q: For `Cn1cc2cc(-c3nc4ccc(OCC(F)(F)F)nc4n(-c4ccc(OC(F)F)cc4)c3=O)ccc2n1` [Example 328], which IC50 (MAT2A homodimer) is on record?
A: < 100 nM

Q: And the IC50 [1]?
A: < 100 nM

Q: What about the IC50 (HCT116 MTAP-/-) of the same compound?
A: < 100 nM

Q: What about the IC50 (HCT116 MTAP +/+) of the same compound?
A: ≥ 1000 nM

Q: `Cn1cc2cc(-c3nc4ccc(OCC(F)(F)F)nc4n(-c4ccc(C5CC5)cc4)c3=O)ccc2n1` [Example 329] was tested. Which IC50 (MAT2A homodimer) did it give?
A: < 100 nM

Q: What about the IC50 [1] of the same compound?
A: < 100 nM

Q: And the IC50 (HCT116 MTAP-/-)?
A: < 100 nM

Q: What about the IC50 (HCT116 MTAP +/+) of the same compound?
A: ≥ 1000 nM

Q: `CCOc1ccc2nc(-c3ccc4nn(C)cc4c3)c(=O)n(-c3ccc(C4CC4)cc3)c2n1` [Example 330] was tested. Which IC50 (MAT2A homodimer) did it give?
A: < 100 nM

Q: And the IC50 [1]?
A: < 100 nM

Q: What about the IC50 (HCT116 MTAP-/-) of the same compound?
A: < 100 nM

Q: And the IC50 (HCT116 MTAP +/+)?
A: ≥ 1000 nM

Q: For `[2H]C([2H])([2H])Oc1ccc(-n2c(=O)c(-c3ccc4nn(C)cc4c3)nc3ccc(OC(C)C)nc32)cc1` [Example 331], which IC50 (MAT2A homodimer) is on record?
A: < 100 nM

Q: What about the IC50 [1] of the same compound?
A: < 100 nM

Q: What about the IC50 (HCT116 MTAP-/-) of the same compound?
A: < 100 nM

Q: And the IC50 (HCT116 MTAP +/+)?
A: ≥ 1000 nM

Q: With `Cn1cc2cc(-c3nc4ccc(OCC(F)(F)F)nc4n(-c4ccc(C5CC5)nc4)c3=O)ccc2n1` [Example 332] as the compound, how does the IC50 (MAT2A homodimer) read?
A: < 100 nM

Q: What about the IC50 [1] of the same compound?
A: < 100 nM

Q: And the IC50 (HCT116 MTAP-/-)?
A: < 100 nM

Q: And the IC50 (HCT116 MTAP +/+)?
A: ≥ 1000 nM

Q: `Cc1ccc(-n2c(=O)c(-c3ccc4nn(C)cc4c3)nc3ccc(OCC(F)(F)F)nc32)cn1` [Example 333] was tested. Which IC50 (MAT2A homodimer) did it give?
A: < 100 nM

Q: And the IC50 [1]?
A: < 100 nM

Q: And the IC50 (HCT116 MTAP-/-)?
A: 100 to 1000 nM

Q: What about the IC50 (HCT116 MTAP +/+) of the same compound?
A: ≥ 1000 nM

Q: For `COc1ccc(-n2c(=O)c(-c3ccc4nn(CCO)cc4c3)nc3ccc(OCC(F)(F)F)nc32)cc1` [Example 335, 2-(2-(2-hydroxyethyl)-2H-indazol-5-yl)-4-(4-methoxyphenyl)-6-(2,2,2-trifluoroethoxy)pyrido[2,3-b]pyrazin-3(4H)-one], which IC50 (MAT2A homodimer) is on record?
A: < 100 nM

Q: What about the IC50 [1] of the same compound?
A: < 100 nM

Q: What about the IC50 (HCT116 MTAP-/-) of the same compound?
A: < 100 nM

Q: And the IC50 (HCT116 MTAP +/+)?
A: ≥ 1000 nM

Q: What does the source list for `CCNc1ccc2nc(-c3ccc4nn(C)cc4c3)c(=O)n(-c3ccc(OC(F)F)cc3)c2n1` [Example 338]?
A: IC50 (MAT2A homodimer): < 100 nM; IC50 [1]: < 100 nM; IC50 (HCT116 MTAP-/-): < 100 nM; IC50 (HCT116 MTAP +/+): < 100 nM

Q: `COc1ccc(-n2c(=O)c(-c3ccc4nc(C)n(C)c4c3)nc3ccc(OCC(F)(F)F)nc32)cc1` [Example 340] was tested. Which IC50 (MAT2A homodimer) did it give?
A: < 100 nM

Q: And the IC50 [1]?
A: < 100 nM

Q: And the IC50 (HCT116 MTAP-/-)?
A: < 100 nM

Q: And the IC50 (HCT116 MTAP +/+)?
A: ≥ 1000 nM

Q: How did the IC50 (MAT2A homodimer) turn out when `CCNc1ccc2nc(-c3ccc4nn(C)cc4c3)c(=O)n(-c3ccc(OC)cc3)c2n1` [Example 341] was run?
A: < 100 nM

Q: What about the IC50 [1] of the same compound?
A: < 100 nM

Q: And the IC50 (HCT116 MTAP-/-)?
A: < 100 nM

Q: And the IC50 (HCT116 MTAP +/+)?
A: ≥ 1000 nM

Q: Which results are given for `[2H]C([2H])([2H])Oc1ccc(-n2c(=O)c(-c3ccc4nn(C)cc4c3)cc3ncc(OCC)nc32)cc1` [Example 342]?
A: IC50 (MAT2A homodimer): < 100 nM; IC50 [1]: < 100 nM; IC50 (HCT116 MTAP-/-): < 100 nM; IC50 (HCT116 MTAP +/+): 100 to 1000 nM

Q: With `COc1ccc(-n2c(=O)c(-c3ccc4nn(C)cc4c3)cc3ncc(OCC(F)(F)F)nc32)cc1` [Example 343, 5-(4-methoxyphenyl)-7-(2-methyl-2H-indazol-5-yl)-3-(2,2,2-trifluoroethoxy)pyrido[2,3-b]pyrazin-6(5H)-one] as the compound, how does the IC50 (MAT2A homodimer) read?
A: < 100 nM

Q: What about the IC50 [1] of the same compound?
A: < 100 nM

Q: What about the IC50 (HCT116 MTAP-/-) of the same compound?
A: < 100 nM

Q: And the IC50 (HCT116 MTAP +/+)?
A: ≥ 1000 nM

Q: How did the IC50 (MAT2A homodimer) turn out when `[2H]C([2H])([2H])Oc1ccc(-n2c(=O)c(-c3ccc4nn(C)cc4c3)cc3ncc(OCC(F)F)nc32)cc1` [Example 344] was run?
A: < 100 nM

Q: And the IC50 [1]?
A: < 100 nM

Q: And the IC50 (HCT116 MTAP-/-)?
A: < 100 nM

Q: What about the IC50 (HCT116 MTAP +/+) of the same compound?
A: ≥ 1000 nM

Q: What does the source list for `[2H]C([2H])([2H])Oc1ccc(-n2c(=O)c(-c3ccc4nn(C)cc4c3)cc3ncc(OCC(F)(F)F)nc32)cc1` [Example 345]?
A: IC50 (MAT2A homodimer): < 100 nM; IC50 [1]: < 100 nM; IC50 (HCT116 MTAP-/-): 100 to 1000 nM; IC50 (HCT116 MTAP +/+): ≥ 1000 nM

Q: `Cn1cc2cc(-c3nc4ccc(OCC(F)(F)F)nc4n(-c4ccc(Br)cc4)c3=O)ccc2n1` [Example 346, 4-(4-bromophenyl)-2-(2-methyl-2H-indazol-5-yl)-6-(2,2,2-trifluoroethoxy)pyrido[2,3-b]pyrazin-3(4H)-one] was tested. Which IC50 (MAT2A homodimer) did it give?
A: < 100 nM

Q: What about the IC50 [1] of the same compound?
A: < 100 nM

Q: What about the IC50 (HCT116 MTAP-/-) of the same compound?
A: < 100 nM

Q: What about the IC50 (HCT116 MTAP +/+) of the same compound?
A: ≥ 1000 nM

Q: What does the source list for `COc1ccc(-n2c(=O)c(-c3ccc4nn(CCN)cc4c3)nc3ccc(OCC(F)(F)F)nc32)cc1` [Example 347, 2-(2-(2-aminoethyl)-2H-indazol-5-yl)-4-(4-methoxyphenyl)-6-(2,2,2-trifluoroethoxy)pyrido[2,3-b]pyrazin-3(4H)-one]?
A: IC50 (MAT2A homodimer): < 100 nM; IC50 [1]: < 100 nM; IC50 (HCT116 MTAP-/-): 100 to 1000 nM; IC50 (HCT116 MTAP +/+): ≥ 1000 nM

Q: What does the source list for `CNc1ccc(-n2c(=O)c(-c3ccc4nn(C)cc4c3)nc3ccc(OCC(F)(F)F)nc32)cn1` [Example 348, 2-(2-methyl-2H-indazol-5-yl)-4-(6-(methylamino)pyridin-3-yl)-6-(2,2,2-trifluoroethoxy)pyrido[2,3-b]pyrazin-3(4H)-one]?
A: IC50 (MAT2A homodimer): < 100 nM; IC50 [1]: < 100 nM; IC50 (HCT116 MTAP-/-): < 100 nM; IC50 (HCT116 MTAP +/+): ≥ 1000 nM

Q: What does the source list for `COc1ccc(-n2c(=O)c(-c3ccc4nc(N)n(C)c4c3)nc3ccc(OCC(F)(F)F)nc32)cc1` [Example 351, 2-(2-amino-1-methyl-1H-benzo[d]imidazol-6-yl)-4-(4-methoxyphenyl)-6-(2,2,2-trifluoroethoxy)pyrido[2,3-b]pyrazin-3(4H)-one]?
A: IC50 (MAT2A homodimer): < 100 nM; IC50 [1]: < 100 nM; IC50 (HCT116 MTAP-/-): < 100 nM; IC50 (HCT116 MTAP +/+): ≥ 1000 nM

Q: `COc1ccc(-n2c(=O)c(-c3ccc4nn(C)cc4c3)nc3c(N)cc(OCC(F)(F)F)nc32)cc1` [Example 352, 8-amino-4-(4-methoxyphenyl)-2-(2-methyl-2H-indazol-5-yl)-6-(2,2,2-trifluoroethoxy)pyrido[2,3-b]pyrazin-3(4H)-one] was tested. Which IC50 (MAT2A homodimer) did it give?
A: < 100 nM

Q: What about the IC50 [1] of the same compound?
A: < 100 nM

Q: And the IC50 (HCT116 MTAP-/-)?
A: < 100 nM

Q: What about the IC50 (HCT116 MTAP +/+) of the same compound?
A: 100 to 1000 nM

Q: Which results are given for `COc1ccc(-n2c(=O)c(-c3ccc4nc(N)n(C)c4c3)cc3ccc(OCC(F)(F)F)nc32)cc1` [Example 353, 3-(2-amino-1-methyl-1H-benzo[d]imidazol-6-yl)-1-(4-methoxyphenyl)-7-(2,2,2-trifluoroethoxy)-1,8-naphthyridin-2(1H)-one]?
A: IC50 (MAT2A homodimer): < 100 nM; IC50 [1]: < 100 nM; IC50 (HCT116 MTAP-/-): < 100 nM; IC50 (HCT116 MTAP +/+): ≥ 1000 nM
